In brackets after ≈: the same amount, converted by molar mass. Read-outs that look alike come from different tables or passages of the source. Marks after values point to notes of the source that are not given here. Blank lines part the entries; values can stand above or below the compound they belong to.
Assays:
[1] = MTT cell viability assay, HGFs; assay type: cell-based, human; conditions: human, primary human gingival fibroblasts (HGFs), evaluated for CMC; for viability at 24 h: read-out: Viability 24 h HGF’s; for viability at 48 h: read-out: Viability 48 h HGF’s
Method: (§1) HaCaT (immortalized human keratinocytes from histologically normal skin) cell line was obtained from the CLS Cell Lines Service GmbH (Eppelheim, Germany). HGFs (human gingival fibroblasts) derive from primary cell culture. The cells were isolated according to the procedure described by Saczko et al. and patented by Saczko et al.. Cells were grown in plastic cell culture flasks in Dulbecco’s Modified Eagle’s Medium, supplemented with fetal bovine serum (FBS, Lonza, Morrisville, NC, USA), with 100 IU/mL penicillin, 50 mg streptomycin, and 125 μg amphotericin B (Sigma). The cells were maintained in a humidified atmosphere at 37 °C and 5% CO2. The cells were regularly maintained by systematic passaging. For experimental purposes, the cells were removed by trypsinization (0.25% Trypsin-EDTA, Sigma).
(§2) MTT (Sigma) test was used to determine the viability of HaCaT and HGFs cells. The MTT assay was used to test mitochondrial metabolic functioning. Cells were seeded on flat bottom 96-well tissue culture plates at a density of 10^4 cells/well and allowed to grow in a CO2 incubator at 37 °C overnight. In the case of these studies, the culture medium was removed, surfactant solutions were added, and the cells were exposed for 24 and 48 h to compounds at doses ranging from 50 to 2000 μg/mL. After incubation, MTT assay was applied according to the manufacturer protocol. The absorbance was measured at 570 nm using a multiwell plate reader (EnSpire Multimode Reader, Perkin Elmer). Each experiment was performed in a few independent repetitions. Mean values and standard deviations of all results were calculated. The final results were expressed as the percentage of mitochondrial function relative to untreated control cells.

[2] = test system: primary fibroblasts (HGFs); assay: MTT cell viability assay, HGFs; assay type: cell-based, human; conditions: Homo sapiens, Fibroblast, MTT
Method: as §1, §2

[3] = MTT cell viability assay, HaCaT; assay type: cell-based, human; conditions: human, HaCaT cells (immortalized human keratinocytes), evaluated for CMC
Method: as §1, §2

[4] = test system: normal human keratinocytes (HaCaT); assay: MTT cell viability assay, HaCaT; assay type: cell-based; conditions: Homo sapiens, HaCaT, MTT
Method: as §1, §2

[5] = DPPH• scavenging kinetics by UV-vis, pseudo-first-order conditions; conditions: for second-order rate constant k2 for the reaction with DPPH•: ethanol, 298 K, deaerated, DPPH• 2.2 × 10^−4 M, surfactant 0.012-0.12 M
Method: After confirming that the absorption maximum at 517 nm of DPPH• is outside the surfactant’s absorption range, the rate of the DPPH•-scavenging reaction of the N-oxides was measured by monitoring the decrease in absorbance of this maximum. To ensure that the decay of DPPH• obeyed pseudo-first-order kinetics, the concentration of surfactants was at least a 54-fold excess of the DPPH• concentration. As explained in SI, the calculated pseudo-first-order rate constants, kobs, increased linearly with the concentration of Cn(DAPANO)2 and CnPDA (shown in SI). The second-order rate constants k2 for the reaction between the N-oxides and DPPH• were determined from the slopes of the linear plots of kobs vs. the concentration of the surfactants and are given in Figure 6.
The measurements were done under deaerated conditions at 298 K in ethanol solutions (2 mL in a 10 mm quartz cuvette) containing DPPH^• (C = 2.2 × 10^−4 M) and a surfactant at each of five different concentrations, namely C1 = 0.12 M, C2 = 0.09 M, C3 = 0.06 M, C4 = 0.03 M, and C5 = 0.012 M. UV−vis spectral changes associated with the undergoing reaction were monitored at 516 nm, using a Varian Cary 50Conc UV−visible Spectrophotometer. The following equations of the calibration curve were used to calculate DPPH^• concentrations in the reaction system: Abs = 4.0189 × C[mM] + 0.00813 (R^2 = 0.9998). The rate of DPPH^• scavenging reaction was determined using pseudo-first-order kinetics (the concentration of CnPDA or Cn(DAPANO)2 was maintained at more than 54-fold excess of the radical concentration); further details are given as Supporting Information.

[6] = set-up: method as in PMID 23098238; conditions: cited from earlier work
[7] = set-up: method as in PMID 23098238; conditions: cited from earlier work; remark: listed apart in the source
[8] = Hydrodynamic radius of micelles by dynamic light scattering (DLS); assay type: physicochemical; conditions: 298 K, surfactant at 100 x CMC
Method: The hydrodynamic diameter for CnPDA was determined by the DLS method. The measurements were performed using a Nano Series Zetasizer from Malvern Instruments (UK) with a detection angle of 173°, equipped with a He−Ne laser (632.8 nm) and an ALV 5000 multibit multitau autocorrelator. Before the measurements, the samples were filtered through a filter (with a pore size of 0.2 μm) directly into the optical cell to remove any impurities. All of the DLS measurements were performed at 298 ± 0.1 K and at a surfactant concentration a hundred times higher than the critical micelle concentration (CMC). Each value was obtained as the average of three runs with at least 10 measurements. The DTS software (Nano) was used to evaluate the data.

[9] = Radical scavenging monitored by EPR spectroscopy, DPPH•; conditions: after 60 min of reaction; C/CMC = 100
Method: (§3) We began with an attempt to determine if the N-oxide surfactants can participate in the radical scavenging process when micelles are well-formed. Thus, the reaction mixtures containing a surfactant at C/CMC = 100, which is a typical concentration found in formulations, and GO• or DPPH• at 2 mM were prepared along with the control samples and monitored over time (solutions of DPPH• and GO• without surfactants).
(§4) The scavenging capacity of the surfactants was judged quantitatively by measuring the percentage of remaining GO• and DPPH• after a fixed reaction time. The relative concentration of GO• and DPPH• was calculated from Equation (1):(1) remaining radical%=It/I0×100% where I0 and It correspond to the EPR signal integral intensity of a radical in the absence and presence of the N-oxide surfactants after a fixed time, respectively.
(§5) The antiradical properties were studied by EPR using a Bruker ELEXYS E500 spectrometer equipped with an NMR gaussmeter and frequency counter. A microwave power of 10 mW, a modulation frequency of 100 kHz, a modulation amplitude of 1 G, a time constant of 82 ms, and a conversion time of 164 ms were adopted. The antiradical properties were evaluated against two model radicals: 2,2-diphenyl-1-picrylhydrazyl (DPPH•) and galvinoxyl (GO•). […]

[10] = Radical scavenging monitored by EPR spectroscopy, GO•; conditions: after 60 min of reaction; C/CMC = 100
Method: as §3, §4, §5

[11] = 24 h incubation, read-out: IC50 HGFs 24 h
[12] = 48 h incubation, read-out: IC50 HGFs 48 h
[13] = 24 h incubation, read-out: IC50 HaCaT 24 h
[14] = 48 h incubation, read-out: IC50 HaCaT 48 h

SMILES: CCCCCCCCCC(=O)N(CCC[N+](C)(C)[O-])CCC[N+](C)(C)[O-] [C10(DAPANO)2]
viability at 24 h [1]: 16.2% | viability at 48 h [1]: 9.7% | IC50 [2, 11]: 34.5 µg/mL (≈ 92.3 µM) | IC50 [2, 12]: 1.9 µg/mL (≈ 5.09 µM) | viability at 24 h [3]: 8.1% | viability at 48 h [3]: 18.2% | IC50 [4, 13]: 98 µg/mL (≈ 262 µM) | IC50 [4, 14]: 97 µg/mL (≈ 260 µM) | second-order rate constant k2 for the reaction with DPPH• [5]: 0.000947 M⁻¹ s⁻¹ | k2 higher in comparison with the CnPDA homolog ([5]; reaction with DPPH•): 11% | RH DLS [6]: 1.75 ^a nm | CMC [7]: 3.0·10^−2 a M

RH DLS [8]: 1.67 nm
SMILES: CCCCCCCCCC(=O)NCCC[N+](C)(C)[O-] [C10PDA]
viability at 24 h [1]: 98.6% | viability at 48 h [1]: 20.2% | IC50 [2, 11]: 77.9 µg/mL (≈ 286 µM) | IC50 [2, 12]: 38.7 µg/mL (≈ 142 µM) | viability at 24 h [3]: 34.7% | viability at 48 h [3]: 84.8% | IC50 [4, 13]: 43.8 µg/mL (≈ 161 µM) | IC50 [4, 14]: 41.5 µg/mL (≈ 152 µM) | second-order rate constant k2 for the reaction with DPPH• [5]: 0.000853 M⁻¹ s⁻¹

RH DLS [8]: 1.96 nm
SMILES: CCCCCCCCCCCC(=O)NCCC[N+](C)(C)[O-] [C12PDA]
viability at 24 h [1]: 55.5% | viability at 48 h [1]: 44.8% | IC50 [2, 11]: 51.9 µg/mL (≈ 173 µM) | IC50 [2, 12]: 49.8 µg/mL (≈ 166 µM) | reduced the number of DPPH• by [9]: 24% | reduced the number of GO• by [10]: 59% | viability at 24 h [3]: 89.4% | viability at 48 h [3]: 116% | IC50 [4, 13]: 31 µg/mL (≈ 103 µM) | IC50 [4, 14]: 18.8 µg/mL (≈ 62.6 µM) | second-order rate constant k2 for the reaction with DPPH• [5]: 0.000905 M⁻¹ s⁻¹
